ChEMBL document CHEMBL1201862, “PubChem BioAssay data set” (2004)
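Five compound concentrations were applied to cells in 96-well plates for 48 hours; endpoints were derived by simple linear interpolation of the resulting dose-response curve. GI50 is the concentration that inhibits growth by half.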 Calls of active or inactive are those of the source. Rule as the data show it: active = GI50 up to about 1.1 µM and inactive = higher.

Assays:
Assay in all cases: inhibition of tumour cell growth, NCI panel, 48 h
[1] = tested on: UO-31
[2] = tested on: HCT-15
[3] = tested on: NCI/ADR-RES
[4] = tested on: SW-620
[5] = tested on: EKVX
[6] = tested on: MDA-MB-231
[7] = tested on: TK-10
[8] = tested on: LOX IMVI
[9] = tested on: CAKI-1
[10] = tested on: OVCAR-4
[11] = tested on: HL-60
[12] = tested on: NCI-H522
[13] = tested on: RXF 393
[14] = tested on: SR
[15] = tested on: BT-549
[16] = tested on: KM12
[17] = tested on: SNB-75
[18] = tested on: UACC-62
[19] = tested on: Hs-578T
[20] = tested on: CCRF-CEM

COC(=O)/C=C1/OC(c2ccccc2)=C(Cl)C1=O
GI50 [1]: 20.9 µM (inactive) | GI50 [2]: 8.97 µM | GI50 [3]: 25.9 µM (inactive) | GI50 [4]: 20.5 µM (inactive) | GI50 [5]: 19.5 µM (inactive) | GI50 [6]: 18.8 µM (inactive) | GI50 [7]: 31.9 µM (inactive) | GI50 [8]: 13.6 µM (inactive) | GI50 [9]: 18.2 µM (inactive) | GI50 [10]: 20.7 µM (inactive) | GI50 [11]: 3.95 µM (inactive) | GI50 [12]: 17.9 µM (inactive) | GI50 [13]: 15.7 µM (inactive) | GI50 [14]: 4.72 µM (inactive) | GI50 [15]: 18.5 µM (inactive) | GI50 [16]: 21 µM (inactive) | GI50 [17]: 20.1 µM (inactive) | GI50 [18]: 18 µM (inactive) | GI50 [19]: 21.5 µM (inactive) | GI50 [20]: 5.58 µM (inactive)

CS/C(Nc1ccccc1)=C1\C(=O)N(c2ccccc2)N=C1C
GI50 [1]: > 100 µM (inactive) | GI50 [2]: > 100 µM | GI50 [3]: > 100 µM (inactive) | GI50 [4]: > 100 µM (inactive) | GI50 [5]: > 100 µM (inactive) | GI50 [6]: > 100 µM (inactive) | GI50 [7]: > 100 µM (inactive) | GI50 [8]: > 100 µM (inactive) | GI50 [9]: 52 µM (inactive) | GI50 [10]: > 100 µM (inactive) | GI50 [11]: > 100 µM (inactive) | GI50 [12]: 35.1 µM (inactive) | GI50 [13]: > 100 µM (inactive) | GI50 [14]: > 100 µM (inactive) | GI50 [15]: > 100 µM (inactive) | GI50 [16]: > 100 µM (inactive) | GI50 [17]: > 100 µM (inactive) | GI50 [18]: > 100 µM (inactive) | GI50 [19]: > 100 µM (inactive) | GI50 [20]: > 100 µM (inactive)

COC(C)(C)OCCN1CCN(CCN2C3=C(C=C(C(C)=O)C3)Sc3ccccc32)CC1
GI50 [1]: 25.1 µM (inactive) | GI50 [2]: 19.6 µM | GI50 [3]: 20.7 µM (inactive) | GI50 [4]: 17.5 µM (inactive) | GI50 [5]: 42.1 µM (inactive) | GI50 [6]: 22.3 µM (inactive) | GI50 [7]: 19.2 µM (inactive) | GI50 [8]: 20.7 µM (inactive) | GI50 [9]: 19.2 µM (inactive) | GI50 [10]: 28.6 µM (inactive) | GI50 [11]: 16.6 µM (inactive) | GI50 [12]: 17.5 µM (inactive) | GI50 [13]: 17.9 µM (inactive) | GI50 [14]: 15.6 µM (inactive) | GI50 [15]: 21.6 µM (inactive) | GI50 [16]: 16.7 µM (inactive) | GI50 [17]: 30.5 µM (inactive) | GI50 [18]: 15.3 µM (inactive) | GI50 [19]: 15.8 µM (inactive) | GI50 [20]: 15.2 µM (inactive)

O=Cc1ccc(OC[C@H]2COC(=O)N2)cc1
GI50 [1]: > 100 µM (inactive) | GI50 [2]: > 100 µM | GI50 [3]: > 100 µM (inactive) | GI50 [4]: > 100 µM (inactive) | GI50 [5]: > 100 µM (inactive) | GI50 [6]: > 100 µM (inactive) | GI50 [7]: > 100 µM (inactive) | GI50 [8]: > 100 µM (inactive) | GI50 [9]: > 100 µM (inactive) | GI50 [10]: > 100 µM (inactive) | GI50 [11]: > 100 µM (inactive) | GI50 [12]: 52.4 µM (inactive) | GI50 [13]: > 100 µM (inactive) | GI50 [14]: > 100 µM (inactive) | GI50 [15]: > 100 µM (inactive) | GI50 [16]: 37.8 µM (inactive) | GI50 [17]: > 100 µM (inactive) | GI50 [18]: > 100 µM (inactive) | GI50 [19]: > 100 µM (inactive) | GI50 [20]: > 100 µM (inactive)

O=C(Nc1ccc(Cl)cc1Cl)C1C(=O)OC2(CCCCC2)OC1=O
GI50 [1]: 2.94 µM (inactive) | GI50 [2]: 14.6 µM | GI50 [3]: 4.93 µM (inactive) | GI50 [4]: 5.52 µM (inactive) | GI50 [5]: 11.9 µM (inactive) | GI50 [6]: 14.1 µM (inactive) | GI50 [7]: 14.1 µM (inactive) | GI50 [8]: 6.22 µM (inactive) | GI50 [9]: 4.78 µM (inactive) | GI50 [10]: 9.18 µM (inactive) | GI50 [11]: 5.16 µM (inactive) | GI50 [12]: 12 µM (inactive) | GI50 [13]: 5.36 µM (inactive) | GI50 [14]: 5.97 µM (inactive) | GI50 [15]: 10.7 µM (inactive) | GI50 [16]: 6.43 µM (inactive) | GI50 [17]: 10.4 µM (inactive) | GI50 [18]: 11 µM (inactive) | GI50 [19]: 10.8 µM (inactive) | GI50 [20]: 4.24 µM (inactive)

O=C(O)C(Cc1c[nH]c2ccccc12)C(=O)NO (stereo not given)
GI50 [1]: > 100 µM (inactive) | GI50 [2]: > 100 µM | GI50 [3]: > 100 µM (inactive) | GI50 [4]: 95.5 µM (inactive) | GI50 [5]: 14.2 µM (inactive) | GI50 [6]: > 100 µM (inactive) | GI50 [7]: > 100 µM (inactive) | GI50 [8]: > 100 µM (inactive) | GI50 [9]: > 100 µM (inactive) | GI50 [10]: > 100 µM (inactive) | GI50 [11]: 53.7 µM (inactive) | GI50 [12]: > 100 µM (inactive) | GI50 [13]: > 100 µM (inactive) | GI50 [14]: > 100 µM (inactive) | GI50 [15]: > 100 µM (inactive) | GI50 [16]: > 100 µM (inactive) | GI50 [17]: > 100 µM (inactive) | GI50 [18]: > 100 µM (inactive) | GI50 [19]: > 100 µM (inactive) | GI50 [20]: 39.8 µM (inactive)

CC1(C)C2CCC3=C(CCC4(C)C5C[C@](C)(C(=O)O)CC[C@]5(C)CC[C@]34C)[C@@]2(C)CC[C@@H]1O (stereo not given in full)
GI50 [1]: 29.4 µM (inactive) | GI50 [2]: 16.5 µM | GI50 [3]: 17.9 µM (inactive) | GI50 [4]: 16.6 µM (inactive) | GI50 [5]: 20.4 µM (inactive) | GI50 [6]: 17.9 µM (inactive) | GI50 [7]: 17.8 µM (inactive) | GI50 [8]: 14.8 µM (inactive) | GI50 [9]: 18.9 µM (inactive) | GI50 [10]: 16.3 µM (inactive) | GI50 [11]: 18.1 µM (inactive) | GI50 [12]: 20 µM (inactive) | GI50 [13]: 21.6 µM (inactive) | GI50 [14]: 30.8 µM (inactive) | GI50 [15]: 20.1 µM (inactive) | GI50 [16]: 15.4 µM (inactive) | GI50 [17]: 19 µM (inactive) | GI50 [18]: 19.3 µM (inactive) | GI50 [19]: 31 µM (inactive) | GI50 [20]: 14.9 µM (inactive)

CC(=O)Nc1ccc(-c2nc3ccccc3s2)cc1Br
GI50 [1]: 25.5 µM (inactive) | GI50 [2]: > 59.7 µM | GI50 [3]: 73.3 µM (inactive) | GI50 [4]: > 100 µM (inactive) | GI50 [5]: 10.5 µM (inactive) | GI50 [6]: 39.2 µM (inactive) | GI50 [7]: 0.142 µM (active) | GI50 [8]: 71.1 µM (inactive) | GI50 [9]: 25.5 µM (inactive) | GI50 [10]: > 38.7 µM (inactive) | GI50 [11]: > 100 µM (inactive) | GI50 [12]: > 72.3 µM (inactive) | GI50 [13]: 23.4 µM (inactive) | GI50 [14]: > 100 µM (inactive) | GI50 [15]: 29.1 µM (inactive) | GI50 [16]: > 100 µM (inactive) | GI50 [17]: 32.1 µM (inactive) | GI50 [18]: > 72.1 µM (inactive) | GI50 [19]: 15.7 µM (inactive) | GI50 [20]: > 100 µM (inactive)

COc1ccc2cc(CNCCOCCOCCNCc3ccc4cc(OC)ccc4c3)ccc2c1
GI50 [1]: 1.32 µM (inactive) | GI50 [2]: 0.527 µM | GI50 [3]: 1.48 µM (inactive) | GI50 [4]: 0.348 µM (active) | GI50 [5]: 1.57 µM (inactive) | GI50 [6]: 1 µM (active) | GI50 [7]: 1.54 µM (inactive) | GI50 [8]: 0.467 µM (active) | GI50 [9]: 1.61 µM (inactive) | GI50 [10]: 1.92 µM (inactive) | GI50 [11]: 0.216 µM (active) | GI50 [12]: 1.54 µM (inactive) | GI50 [13]: 1.53 µM (inactive) | GI50 [14]: 0.251 µM (active) | GI50 [15]: 1.89 µM (inactive) | GI50 [16]: 0.881 µM (active) | GI50 [17]: 1.38 µM (inactive) | GI50 [18]: 1.78 µM (inactive) | GI50 [19]: 1.64 µM (inactive) | GI50 [20]: 0.341 µM (active)

CCCCCC(=O)Nc1[nH]cnc1C(N)=O
GI50 [1]: > 100 µM (inactive) | GI50 [2]: > 100 µM | GI50 [3]: > 100 µM (inactive) | GI50 [4]: > 100 µM (inactive) | GI50 [5]: > 100 µM (inactive) | GI50 [6]: > 100 µM (inactive) | GI50 [7]: > 100 µM (inactive) | GI50 [8]: > 100 µM (inactive) | GI50 [9]: > 100 µM (inactive) | GI50 [10]: > 100 µM (inactive) | GI50 [11]: > 100 µM (inactive) | GI50 [12]: > 100 µM (inactive) | GI50 [13]: > 100 µM (inactive) | GI50 [14]: > 100 µM (inactive) | GI50 [15]: > 100 µM (inactive) | GI50 [16]: > 100 µM (inactive) | GI50 [17]: > 100 µM (inactive) | GI50 [18]: > 100 µM (inactive) | GI50 [19]: > 100 µM (inactive) | GI50 [20]: > 100 µM (inactive)
